Test results taken from patent publication US7276604B2, “Crystalline form of the sodium salt of 3-pyridyl-1-hydroxyethylidene-1,1-bisphosphonic acid” (Zentiva A.S., priority 2002, dated 2007).
Where a name gives a salt, the structure may show the parent alone.

What was measured:
Format in all cases: physicochemical
[1] = Drying in vacuum oven and re-uptake of water (stability of water content, Karl Fischer / TGA); settings: for water content after standing at 100% relative air humidity: within two hours; for hygroscopicity of the dried product: after drying in a vacuum oven
Text: An useful example of such a hydrate is a modification that is characterized by water content 20 up to 23%, specially with 22.8 w. % of water, and sodium content 5.5 up to 7.5%, specially 6.4 up to 6.7 w. %. The specified water content is built in the crystal lattice and the mentioned crystalline modification is thermodynamically stable. By drying with several different drying regimes, the mentioned crystalline modification was dried to the water content corresponding to the pentahemihydrate, the monohydrate and the anhydrous form of sodium 3-pyridyl-1-hydroxyethylidene-1,1-bisphosphonate. When the substance is left standing on the air, the water content stabilizes spontaneously at the original level. Time that it takes for the water content to stabilize depends on relative humidity in the environment in which the dried substance is placed.
(§1) Water content in the substance was determined using a method according to Karl Fischer and TGA analyses. Sodium content in the substance was determined using acidobasic titration and AAS. Solubility tests were performed according to the Technical Guide European Pharmacopeia.
The dried product is hygroscopic. If the substance is left standing at room temperature and usual relative air humidity, the water content returns to the original level within 12 hours.
In the pentahydrate dried in a vacuum oven at 105° C., the substance's water content decreases to 3% after six hours. The dried product is hygroscopic. If the substance is left standing at room temperature and usual relative air humidity, the water content increases with a speed of about 0.5% an hour. Within 11 days, the substance's water content returns to about 20 weight %.
(§2) In trihydrate of the trisodium salt dried in a vacuum oven at 105° C., the substance's water content decreases to 1.1% after 6 hours. The dried product is hygroscopic. If the substance is placed in an environment with 100% relative air humidity, the water content returns to the original level within two hours.
as §2, with “disodium” for “trisodium”, “approximately 1.7%” for “1.1%”, “the” for “the original”, “level of approximately 5.2%” for “level”

[2] = Solubility test in 0.1 M HCl with pH 1.1 (Technical Guide European Pharmacopeia); settings: for dissolution observed: 0.1 M HCl pH 1.1, 0.1, 0.9, 2.0 and 7.0 ml added gradually, 25° C. for 15 min; for proportion of the dissolved substance: 0.1 M HCl pH 1.1, 10.0 ml added in total to about 100 mg, 25° C., HPLC
Method: as §1
(§3) 0.1 ml; 0.9 ml, 2.0 and 7.0 ml of 0.1 M HCl with pH 1.1 were gradually added to a 106.8 mg sample of risedronate monosodium salt pentahemihydrate. The suspension was mixed for 1 min and tempered to 25° C. for 15 min after each addition of acid. […] The proportion of the dissolved substance was determined to be 9.46% using HPLC.
as §3, with “99.07” for “106.8”, “pentahydrate.” for “pentahemihydrate.”, “31.62%” for “9.46%”

[3] = Solubility test in water (Technical Guide European Pharmacopeia); settings: for dissolution observed: 0.1, 0.9 and 2.0 ml added gradually, 25° C. for 15 min; for proportion of the dissolved substance: 3.0 ml added in total to about 100 mg, 25° C., HPLC
Method: as §1
(§4) 0.1 ml; 0.9 ml and 2.0 ml of water were gradually added to a 100.25 mg sample of risedronate monosodium salt pentahemihydrate. The suspension was mixed for about 1 min and tempered to 25° C. for 15 min after each addition of water. […] The proportion of the dissolved substance was determined to be 100% using HPLC.
as §4, with “98.78” for “100.25”, “pentahydrate.” for “pentahemihydrate.”

[4] = after drying at 105° C., 100% relative air humidity
[5] = vacuum oven at 105° C., after 6 hours

Compound | dissolution observed [2] | proportion of the dissolved substance [2] | dissolution observed [3] | proportion of the dissolved substance [3] | hygroscopicity of the dried product [1] | water content after drying [1, 5] | other results
O=P(O)(O)C(O)(Cc1cccnc1)P(=O)(O)O [Risedronate disodium salt monohydrate, disodium 3-pyridyl-1-hydroxyethylidene-1,1-bisphosphonate] | – | – | – | – | – | – | water content after standing at 100% relative air humidity ([1]; after drying at 105° C., 100% relative air humidity, listed as trihydrate of the disodium salt): approximately 5.2%; period in which the water content mostly stabilizes at the given value ([1]; dried at different conditions, then high relative humidity, 'mostly'): less than 12 hours; water content after drying ([1]; vacuum oven at 105° C., after 6 hours, listed as trihydrate of the disodium salt): approximately 1.7%
O=P(O)(O)C(O)(Cc1cccnc1)P(=O)(O)O [risedronate monosodium salt pentahemihydrate] [monosodium 3-pyridyl-1-hydroxyethylidene-1,1-bisphosphonate, reference compound] | did not dissolve completely | 9.46% | completely dissolved | 100% | – | – | –
O=P(O)(O)C(O)(Cc1cccnc1)P(=O)(O)O [risedronate monosodium salt pentahydrate, monosodium 3-pyridyl-1-hydroxyethylidene-1,1-bisphosphonate] | did not dissolve completely | 31.62% | completely dissolved | 100% | hygroscopic | 3% | solubility in 0.1 M hydrochloric acid compared with the pentahemihydrate form ([2]; 0.1 M HCl pH 1.1): significantly more soluble; time for water content to return to the original level ([1]; after drying at 50° C., room temperature and usual relative air humidity): ≤ 12 h; water content after standing at 100% relative air humidity [1, 4]: 22.7%; speed of water content increase ([1]; after drying at 105° C., room temperature and usual relative air humidity): about 0.5 % an hour; water content after standing ([1]; after drying at 105° C., room temperature and usual relative air humidity, within 11 days): about 20 weight %; stability of the regained water content ([1]; usual lab conditions): stable and does not change; water content after drying ([1]; vacuum oven at 50° C., after six hours): 11.5%
O=P(O)(O)C(O)(Cc1cccnc1)P(=O)(O)O [trihydrate of the trisodium salt, trisodium 3-pyridyl-1-hydroxyethylidene-1,1-bisphosphonate] | – | – | – | – | hygroscopic | 1.1% | time for water content to return to the original level [1, 4]: two
